Experimental data reported in patent US20230382920A1, “SHMT Inhibitors” (The Trustees of Princeton University, priority 2020, published 2023).
Read-outs that look alike come from different tables or passages of the source.

Assay: Pharmacokinetics study of KDG-0388 in male CD1 mice (Example 2)
Assay type: in vivo
Conditions: for F: bioavailability vs 1 mg/kg IV; for MRT inf: read-out: MRTInf_obs
Protocol: A standard PK study of KDG-0388 was performed in male CD1 mice dosed with a single oral or intraperitoneal dose of KDG-0388. The parameters of the PK study are described in Table 10. Dosing solutions were freshly made prior to use, and were in the form of a suspension. […] For IV and IP, after collection, plasma samples from the same time point were pooled, and the pooled samples were analyzed by LC/MS/MS.
The desired serial concentrations of working solutions were achieved by diluting stock solution of analyte with 50% acetonitrile in water solution. 5 μL of working solutions (2, 4, 10, 20, 100, 400, 2000, 4000 ng/mL) were added to 10 μL of blank CD1 mouse plasma to achieve calibration standards of 1-2000 ng/mL (1, 2, 5, 10, 50, 200, 1000, 2000 ng/mL) in a total volume of 15 μL. Five quality control (QC) samples at 2 ng/mL, 5 ng/mL, 50 ng/mL, 800 ng/mL and 1600 ng/mL for plasma were prepared independently of those used for the calibration curves. These QC samples were prepared on the day of analysis in the same way as calibration standards.
15 μL standards, 15 μL QC samples and 15 μL unknown samples (10 μL plasma with 5 μL blank solution) were added to 200 μL of acetonitrile containing IS mixture for precipitating protein. Then, the samples were vortexed for 30 seconds. After centrifugation at 4 degrees Celsius, 4000 rpm for 15 minutes, the supernatant was diluted three times with water. 25 μL of diluted supernatant was injected into the LC/MS/MS system for quantitative analysis.
BLOQ=Below quantifiable limit of 1 ng/mL. PK parameters were estimated by non-compartmental model using WinNonlin 6.1. The PO bioavailability (F %) was calculated as following:
AUClast-PO/AUCINF-PO>80%: F=(AUCINF-PO*DoseIV)/(mean AUCINF-IV*DosePO) AUClast-PO/AUCINF-PO≤80% or AUCINF was not available: F=(AUClast-PO*DoseIV)/(mean AUClast-IV*DosePO).
The IP bioavailability (F %) was calculated as following:
AUClast-IP/AUCINF-IP>80%: F=(AUCINF-IP*DoseIV)/(mean AUCINF-IV*DoseIP) AUClast-IP/AUCINF-IP≤80% or AUCINF was not available: F=(AUClast-IP*DoseIV)/(mean AUClast-IV*DoseIP).

[1] = male, mouse, plasma, CD1 mice, 1 mg/kg IV
[2] = male, mouse, CD1 mice, plasma, 1 mg/kg IV, read-out: Concentration IV_Mean
[3] = mouse, plasma, male CD1 mice, 200 mg/kg IP
[4] = mouse, plasma, male CD1 mice, 200 mg/kg PO
[5] = mouse, male CD1 mice, plasma, 200 mg/kg IP, read-out: Concentration IP_Mean
[6] = mouse, male CD1 mice, plasma, 200 mg/kg PO, read-out: Concentration PO_Mean

AUC_%Extrap_obs (CD1 mice, 1 mg/kg IV): 3.44%
AUClast/D (CD1 mice, 1 mg/kg IV): 76.6 kg·ng·h/mL/mg
Cl_obs (CD1 mice, 1 mg/kg IV): 210 mL/min/kg
Vss_obs (CD1 mice, 1 mg/kg IV): 8.80 L/kg
Concentration IV_Mean (CD1 mice, plasma, 1 mg/kg IV, 8 h): BLOQ
AUC_%Extrap_obs (male CD1 mice, 200 mg/kg IP): 6.08%
AUClast/D (male CD1 mice, 200 mg/kg IP): 136 kg·ng·h/mL/mg
F (male CD1 mice, 200 mg/kg IP): 183%
AUC_%Extrap_obs (male CD1 mice, 200 mg/kg PO): 0.218%
AUClast/D (male CD1 mice, 200 mg/kg PO): 16.9 kg·ng·h/mL/mg
F (male CD1 mice, 200 mg/kg PO): 21.4%
Concentration PO_Mean (male CD1 mice, plasma, 200 mg/kg PO, 24 h): BLOQ
AUC(0-inf) [1]: 79.3 ng·h/mL
AUC(0-t) [1]: 76.6 ng·h/mL
C0 [1]: 325 ng/mL
half-life [1]: 1.11 h
MRT inf [1]: 0.698 h
concentration at 0.083 h (male, mouse, CD1 mice, plasma, 1 mg/kg IV, 0.083 h, read-out: Concentration IV_Mean): 186 ng/mL
concentration at 0.25 h [2]: 60.6 ng/mL
concentration at 0.5 h [2]: 24.9 ng/mL
concentration at 1 h [2]: 11.8 ng/mL
concentration at 2 h [2]: 4.86 ng/mL
concentration at 4 h [2]: 1.71 ng/mL
AUC(0-inf) [3]: 29000 ng·h/mL
AUC(0-t) [3]: 27200 ng·h/mL
Cmax [3]: 7520 ng/mL
Tmax [3]: 0.25 h
half-life [3]: 7.88 h
MRT inf [3]: 6.33 h
AUC(0-inf) [4]: 3400 ng·h/mL
AUC(0-t) [4]: 3390 ng·h/mL
Cmax [4]: 719 ng/mL
Tmax [4]: 2 h
half-life [4]: 1.69 h
MRT inf [4]: 3.53 h
concentration at 0.25 h [5]: 7520 ng/mL
concentration at 0.5 h [5]: 6170 ng/mL
concentration at 1 h [5]: 5460 ng/mL
concentration at 2 h [5]: 3910 ng/mL
concentration at 4 h [5]: 2230 ng/mL
concentration at 8 h (mouse, male CD1 mice, plasma, 200 mg/kg IP, 8 h, read-out: Concentration IP_Mean): 633 ng/mL
concentration at 16 h [5]: 247 ng/mL
concentration at 24 h (mouse, male CD1 mice, plasma, 200 mg/kg IP, 24 h, read-out: Concentration IP_Mean): 155 ng/mL
concentration at 0.25 h [6]: 215 ng/mL
concentration at 0.5 h [6]: 347 ng/mL
concentration at 1 h [6]: 475 ng/mL
concentration at 2 h [6]: 719 ng/mL
concentration at 4 h [6]: 417 ng/mL
concentration at 8 h (mouse, male CD1 mice, plasma, 200 mg/kg PO, 8 h, read-out: Concentration PO_Mean): 84.3 ng/mL
concentration at 16 h [6]: 3.04 ng/mL
SMILES: Cc1n[nH]c2c1C(c1cc(C#C[C@H]3C[C@@H](NC(=O)OC(C)(C)C)C3)cc(CO)c1)(C(C)C)C(C#N)=C(N)O2 (stereo partly drawn) [KDG-0388, tert-butyl N-[(1s,3s)-3-[2-(3-[6-amino-5-cyano-4-isopropyl-3-methyl-1H-pyrano[2,3-c]pyrazol-4-yl]-5-(hydroxymethyl)phenyl)ethynyl]cyclobutyl]carbamate]
clinical symptoms (male CD1 mice, single dose 200 mg/kg PO or 200 mg/kg IP, entire experiment): No abnormal clinical symptoms were observed
